Laboratory results from US20260132128A1, “COMPOUND FOR RECOVERING P53 MUTATION FUNCTION AND USE THEREOF” (SHENZHEN ZHONGGE BIOLOGICAL TECHNOLOGY CO., LTD., priority 2022, published 2026).

Assay: Caco-2 cell permeability test
Type: in vitro ADME
Conditions: human, pH 7.4, Caco-2, 10 μM; for Papp A→B at 120 min, 10 μM: A to B; for Papp B→A at 120 min, 10 μM: B to A
Procedure: Caco-2 cells (ATCC, Cat. No. HTB-37) were inoculated to a 96-well plate (Corning HTS Transwell, Cat. No. 3391) at 1.25×10^5/cm2, and the culture medium (DMEM+10% FBS+1% Penicillin-Streptomycin Liquid (100×)+1% NEAA) was replaced every 3 to 4 days. The plate was placed in an incubator at 37° C. with 5% CO2 until a confluent cell monolayer was formed after 21 to 28 days. Before the transport experiment, the culture medium was removed from the cell culture plate, and the plate was washed twice with pre-warmed HBSS buffer (10 mM HEPES, pH 7.4), and 100 μL of HBSS buffer was added to each well. After incubation at 37° C. for 30 minutes, the TEER value was measured using a cell resistance meter (Millicell-ERS2) to confirm the integrity and density of the monolayer cells. The HBSS buffer was discarded, the upper plate containing the cell monolayer membrane was transferred to the corresponding receiving plate, 10 mM test compound stock solution was diluted to a concentration of 10 μM with HBSS transport buffer containing 0.5% BSA, and it was added to the apical side (A side) and basolateral side (B side), respectively. Incubation was carried out for 120 min at 37° C., 5% CO2, and 95% relative humidity, and the permeation of the test compound from A side to B side or from B side to A side and the efflux rate of the compound were determined. The test compound and the reference compound were quantified by LC-MS/MS analysis based on the peak area ratio of analyte/internal standard. The apparent permeability coefficient Papp (cm/s) was calculated using the following formula:
[formula] • wherein, dCr/dt represented the functional relation between cumulative concentration of compound in receptor compartment and time; V represented the volume of solution in receptor compartment (0.1 mL at apical side, and 0.25 mL at basolateral side); A represented the transport surface area, i.e., the monolayer cell area was 0.0804 cm^2; CO represented the initial concentration of compound in donor compartment.
The efflux ratio was calculated using the following formula: […]
The percent recovery was calculated using the following formula:
[formula] [formula] • wherein, Vd represented the volume of donor compartment (0.1 mL on the apical side and 0.25 mL on the basolateral side); C and Cr represented the final concentrations of the transported compound in the donor and receptor compartment, respectively; Cc represented the compound concentration in cell lysate; Vc represented the volume of insert well (which was 0.1 mL in this experiment).

Compound | efflux ratio at 120 min, 10 μM | Papp A→B at 120 min, 10 μM | Papp B→A at 120 min, 10 μM
CNC(=O)c1ccc(NCC#Cc2nc3c(N[C@@H]4CCN(C)C[C@@H]4F)cccn3c2CC(F)(F)F)c(OC)c1 [Compound 5] | 8.27 | 2.8 ×10⁻⁶ cm/s | 23.1 ×10⁻⁶ cm/s
CNC(=O)c1ccc(NCC#Cc2nc3c(NC4CC[C@@H](N5CC6(COC6)C5)C[C@@H]4F)cccn3c2CC(F)(F)F)c(OCF)c1 (stereo partly drawn) [Compound 58] | 3.09 | 2.41 ×10⁻⁶ cm/s | 7.46 ×10⁻⁶ cm/s
[2H]C([2H])([2H])NC(=O)c1ccc(NCC#Cc2nc3c(NC4CC[C@@H](N5CC6(COC6)C5)C[C@@H]4F)cccn3c2CC(F)(F)F)c(OC([2H])([2H])[2H])c1 (stereo partly drawn) [Compound 64] | 1.22 | 4.92 ×10⁻⁶ cm/s | 5.99 ×10⁻⁶ cm/s

Second part, the compound after the results:

efflux ratio at 120 min, 10 μM | Papp A→B at 120 min, 10 μM | Papp B→A at 120 min, 10 μM | Compound
4.31 | 2.66 ×10⁻⁶ cm/s | 11.4 ×10⁻⁶ cm/s | CNC(=O)c1ccc(NCC#Cc2nc3c(NC4CCC(N5CC6(COC6)C5)CC4F)cccn3c2CC(F)(F)F)c(OC)c1 (single isomer, unassigned) [Compound 35-6i]
2.24 | 2.3 ×10⁻⁶ cm/s | 5.16 ×10⁻⁶ cm/s | COc1cc(C(=O)NC2CC2)ccc1NCC#Cc1nc2c(NC3CC[C@@H](N4CC5(COC5)C4)C[C@@H]3F)cccn2c1CC(F)(F)F (stereo partly drawn) [Compound 54]
